How the values were obtained:
in vitro [1] = assay: in vitro
Procedure: The detection was carried out on the wave length 220 nm. The samples dosing on the column was carried out by the loop 20 μl.
(§1) For the study of Creatine amides stability, 1 ml of water or blood plasma was added to 200 μl of aqueous solution of starting amide with a concentration of 2÷3 mg/ml then shaken; a probe volume of 200 μl was taken up immediately and analysis of an initial concentration of the Creatine amide was carried out. Further, the solution was placed into a vibro-thermostat at a temperature of 37° C., then aliquote 200 μl was taken up in 0.5, 1, and 3 hours of thermostatics. 20 μl 10% solution of trichloroacetic acid was added to the taken probe, and kept for 15 min at temperature (−)24° C., then centrifuged at 6000×g for 5 minutes for sedimentation of plasma proteins, supernatant was taken up and its analysis was carried out.
(§2) For evaluation of samples' stability, peak areas of a corresponding compound at the beginning of experiment and at selected time intervals were compared (Tables 1, 2).

in vitro [2] = assay: in vitro; remark: listed apart in the source
Procedure: Study of the Creatine derivatives stability in aqueous solution, as well as in human and rat blood plasma was carried out by the method of Reversed Phase HPLC using a chromatography system, known as Beckman System Gold™ (USA) in the following configuration: Programmable Solvent Module 126, Manual Injector Rheodyne 7725i, Programmable Detector Module 166, featured with the Beckman System Gold Chromatography Software™. The analysis was carried out on the column Luna 5μ C18(2) 100 Å 150×4.6 mm (Phenomenex, USA) with the precolumn Guard Cartridge C18 at the flow rate 1 ml/min in the linear gradient of acetonitrile: for analogue from the Example 1 from 5 to 25% of acetonitrile in 20 min (A: 0.1% of […]—H2O, B: 0.1% of H3PO4-acetonitrile), in case of substance from the Examples 2÷8: from 3 to 23% of acetonitrile in 20 minutes. The detection was carried out on the wave length 220 nm. The samples dosing on the column was carried out by the loop 20 μl.
as §1, §2

[3] = dosages up to 30 g for a few days, per os; cited from earlier work
[4] = peak area relative to start, 37° C.

| Stability in human blood plasma, 0 h (in vitro [1]; human, plasma) | Stability in a rat blood plasma, 0 h (in vitro [2]; rat, plasma) | Stability in human blood plasma, 0.5 h (in vitro [1]; human, plasma) | Stability in human blood plasma, 1 h (in vitro [1]; human, plasma) | Stability in human blood plasma, 3 h (in vitro [1]; human, plasma) | Stability in a rat blood plasma, 0.5 h (in vitro [2]; rat, plasma) | Stability in a rat blood plasma, 1 h (in vitro [2]; rat, plasma) | Stability in a rat blood plasma, 3 h (in vitro [2]; rat, plasma) | Structure (SMILES) | Stability in human blood plasma, 0 h (in vitro [1]; [4]) | other results |
| --- | --- | --- | --- | --- | --- | --- | --- | --- | --- | --- |
| 100% | 100% | – | – | – | – | – | – | CCOC(=O)CNC(=O)[C@H](CCCNC(=N)N)NC(=O)[C@H](Cc1ccccc1)NC(=O)CN(C)C(=N)N [Example 7, Creatinyl-Phenylalanyl-Arginyl-Glycine Ethyl Ester Acetate] | – | remaining at 0.5 h (in vitro [1]; human, plasma): 94%; remaining at 1 h (in vitro [1]; human, plasma): 90%; remaining at 3 h (in vitro [1]; human, plasma): 85%; remaining at 0.5 h (in vitro [2]; rat, plasma): 93%; remaining at 1 h (in vitro [2]; rat, plasma): 92%; remaining at 3 h (in vitro [2]; rat, plasma): 85% |
| 100% | 100% | 99% | 99% | 100% | 100% | 97% | 98% | CN(CC(=O)N[C@@H](Cc1ccccc1)C(N)=O)C(=N)N.O [Example 2, Creatinyl-L-Phenylalanine Amide Hydrate] | – | – |
| – | – | – | – | – | – | – | – | CC(=O)O.CCOC(=O)CCCNC(=O)CN(C)C(=N)N [Example 1, Creatinyl-γ-Aminobutyric Acid Ethyl Ester Acetate] | 100% | Stability in human blood plasma, 0.5 h (in vitro [1]; [4]): 99%; Stability in human blood plasma, 1 h (in vitro [1]; [4]): 103%; Stability in human blood plasma, 3 h (in vitro [1]; [4]): 104%; Stability in a rat blood plasma, 0 h (in vitro [2]; [4]): 100%; Stability in a rat blood plasma, 0.5 h (in vitro [2]; [4]): 96%; Stability in a rat blood plasma, 1 h (in vitro [2]; [4]): 98%; Stability in a rat blood plasma, 3 h (in vitro [2]; [4]): 99% |
| – | – | – | – | – | – | – | – | CN(CC(=O)O)C(=N)N.O [Creatine monohydrate] | – | Increase of the total Creatine content in a human's skeleton muscles [3]: more than 20% |
| – | – | – | – | – | – | – | – | CN(CC(=O)OCc1ccccc1)C(=N)N [Creatine benzyl ester, reference compound] | 100% | Decrease of concentration in human blood plasma (in vitro [1]; during 0.75 hours): 53%; remaining at 0.75 h (in vitro [1]; human, blood plasma): 53%; remaining at 3 h (in vitro [1]; human, blood plasma): 46% |
| – | – | – | – | – | – | – | – | CN(CC(=O)N[C@@H](Cc1ccccc1)C(=O)O)C(=N)N.Cl [Example 8, Creatinyl-Phenylalanine hydrochloride] | 100% | Stability in human blood plasma, 0.5 h (in vitro [1]; [4]): 99%; Stability in human blood plasma, 1 h (in vitro [1]; [4]): 98%; Stability in human blood plasma, 3 h (in vitro [1]; [4]): 97%; Stability in a rat blood plasma, 0 h (in vitro [2]; [4]): 100%; Stability in a rat blood plasma, 0.5 h (in vitro [2]; [4]): 98%; Stability in a rat blood plasma, 1 h (in vitro [2]; [4]): 98%; Stability in a rat blood plasma, 3 h (in vitro [2]; [4]): 95% |
| 100% | 100% | 98% | 100% | 99% | 99% | 99% | 96% | CN(CC(=O)NCC(=O)OCc1ccccc1)C(=N)N.Cl [Example 4, Creatinyl-Glycine Benzyl Ester Hydrochloride] | – | – |

| Structure (SMILES) | Stability in human blood plasma, 0 h (in vitro [1]; human, plasma) | Stability in a rat blood plasma, 0 h (in vitro [2]; rat, plasma) | Stability in human blood plasma, 0.5 h (in vitro [1]; human, plasma) | Stability in human blood plasma, 1 h (in vitro [1]; human, plasma) | Stability in human blood plasma, 3 h (in vitro [1]; human, plasma) | Stability in a rat blood plasma, 0.5 h (in vitro [2]; rat, plasma) | Stability in a rat blood plasma, 1 h (in vitro [2]; rat, plasma) | Stability in a rat blood plasma, 3 h (in vitro [2]; rat, plasma) | Stability in human blood plasma, 0 h (in vitro [1]; [4]) | other results |
| --- | --- | --- | --- | --- | --- | --- | --- | --- | --- | --- |
| CC(=O)O.CN(CC(=O)N[C@@H](Cc1ccccc1)C(N)=O)C(=N)N [Example 3, Creatinyl-L-Phenylalanine Amide Acetate] | 100% | 100% | 100% | 100% | 100% | 96% | 98% | 99% | – | – |

From patent US8350077B2 (VERTEX Closed Joint Stock Company, priority 2008, dated 2013)
